From patent US20230011869A1 (Hoffmann-La Roche Inc., priority 2018, published 2023)
Where a name gives a salt, the structure may show the parent alone.

These compounds were tested on Acinetobacter baumannii ATCC17961 (assay: Antimicrobial susceptibility testing: 90% growth inhibitory concentration (IC90) determination, Iso-Sensitest broth). Conditions: Acinetobacter baumannii, ATCC17961, 16 h, 90% growth inhibitory concentration, Acinetobacter baumannii ATCC17961, Iso-Sensitest broth, OD 600 nm over 16 h; read-out: ATCC17961 IC90.
Type: cell-based
Method: Antimicrobial Susceptibility Testing:
90% Growth Inhibitory Concentration (IC90) Determination
The in vitro antimicrobial activity of the compounds was determined according to the following procedure:
The assay used a 10-points Iso-Sensitest broth medium to measure quantitatively the in vitro activity of the compounds against Acinetobacter baumannii ATCC17978 and Acinetobacter baumannii ATCC17961.
Stock compounds in DMSO were serially twofold diluted (e.g. range from 50 to 0.097 μM final concentration) in 384 wells microtiter plates and inoculated with 49 μl the bacterial suspension in Iso-Sensitest medium to have a final cell concentration of 5×10^(5) CFU/ml in a final volume/well of 50 ul/well. Microtiter plates were incubated at 35±2° C.
Bacterial cell growth was determined with the measurement of optical density at λ=600 nm each 20 minutes over a time course of 16 h. Growth inhibition was calculated during the logarithmic growth of the bacterial cells with determination of the concentration inhibiting 50% (IC50) and 90% (IC90) of the growth.
Table 1 provides the 90% growth inhibitory concentrations (IC90) in micromoles per liter of the compounds of present invention obtained against the strain Acinetobacter baumannii ATCC17978 and Acinetobacter baumannii ATCC17961.

Compound | IC90 [nM]
COc1ccc(-c2cnc3c(Nc4ccc(C(=O)N5CCN(C(=O)[C@H]6NC[C@H]7C[C@H]76)CC5)c(C)c4)nccn23)c(F)c1F (racemic) [Example 82, (4-((1R,2S,5S)-3-azabicyclo[3.1.0]hexane-2-carbonyl)piperazin-1-yl)(4-((3-(2,3-difluoro-4-methoxyphenyl)imidazo[1,2-a]pyrazin-8-yl)amino)-2-methylphenyl)methanone hydrochloride] | 98
Cc1cc(Nc2nccn3c(-c4ccc(OC(F)F)cc4)cnc23)ccc1C(=O)N1CCN(C(=O)N[C@@H]2CNC[C@H]2O)CC1 (racemic) [Example 170, 4-[4-[[3-[4-(difluoromethoxy)phenyl]imidazo[1,2-a]pyrazin-8-yl]amino]-2-methyl-benzoyl]-N-[rac-(3R,4R)-4-hydroxypyrrolidin-3-yl]piperazine-1-carboxamide hydrochloride] | 35
COc1ccc(-c2cnc3c(Nc4ccc(C(=O)N5CCN(C(=O)[C@H]6C[C@H](O)CN6)CC5)c(C)c4)nccn23)c(F)c1F (racemic) [Example 228, [4-[[3-(2,3-difluoro-4-methoxy-phenyl)imidazo[1,2-a]pyrazin-8-yl]amino]-2-methyl-phenyl]-[4-[rac-(2R,4S)-4-hydroxy-pyrrolidine-2-carbonyl]piperazin-1-yl]methanone] | 104
COc1ccc(-c2cnc3c(Nc4ccc(C(=O)NC5CCC(NC(=O)[C@H]6C[C@H](O)CN6)C5)c(C)c4)nccn23)c(F)c1F (mixture of isomers) [Example 458, rac-(2R,4S)-N-[3-[[4-[[3-(2,3-difluoro-4-methoxyphenyl)imidazo[1,2-a]pyrazin-8-yl]amino]-2-methylbenzoyl]amino]cyclo-pentyl]-4-hydroxypyrrolidine-2-carboxamide] | 81
Cc1cc(Nc2nccn3c(-c4ccc(OCC#N)c(F)c4Cl)cnc23)ccc1C(=O)N1CCN(C(=O)[C@@H]2CCNC[C@@H]2O)CC1 (relative stereo) [Example 223, 2-[3-chloro-2-fluoro-4-[8-[4-[4-[(3R,4R)-3-hydroxypiperidine-4-carbonyl]piperazine-1-carbonyl]-3-methyl-anilino]imidazo[1,2-a]pyrazin-3-yl]phenoxy] acetonitrile formate] | 47
COc1ccc(-c2cnc3c(Nc4ccc(C(=O)N5CCN(C(=O)[C@]6(O)CNCC[C@H]6O)CC5)c(C)c4)nccn23)c(F)c1F (relative stereo) [Example 236, rel-(4-(4-((3-(2,3-difluoro-4-methoxyphenyl)imidazo[1,2-a]pyrazin-8-yl)amino)-2-methylbenzoyl)piperazin-1-yl)((3R,4S)-3,4-dihydroxypiperidin-3-yl)methanone] | 82
COc1ccc(-c2cnc3c(Nc4ccc(C(=O)N5CCN(C(=O)[C@]67CNCC[C@H]6OC(C)(C)O7)CC5)c(C)c4)nccn23)c(F)c1F (stereo in doubt) [Example 577, rel-(4-(4-((3-(2,3-difluoro-4-methoxyphenyl)imidazo[1,2-a]pyrazin-8-yl)amino)-2-methylbenzoyl)piperazin-1-yl)((3aR,7aS)-2,2-dimethyltetrahydro-[1,3]dioxolo[4,5-c]pyridin-3a(4H)-yl)methanone] | 330
COc1ccc(-c2cnc3c(Nc4ccc(C(=O)N5CCN(C(=O)[C@@]67CNCC[C@@H]6OC(C)(C)O7)CC5)c(C)c4)nccn23)c(F)c1F (stereo in doubt) [Example 578, rel-(4-(4-((3-(2,3-difluoro-4-methoxyphenyl)imidazo[1,2-a]pyrazin-8-yl)amino)-2-methylbenzoyl)piperazin-1-yl)((3aR,7aS)-2,2-dimethyltetrahydro-[1,3]dioxolo[4,5-c]pyridin-3a(4H)-yl)methanone] | 649
COc1ccc(-c2cnc3c(Nc4ccc(C(=O)N5CCC(CN)CC5)c(C)c4)nccn23)cc1 [Example 19, (4-(aminomethyl)piperidin-1-yl)(4-((3-(4-methoxyphenyl)imidazo[1,2-a]pyrazin-8-yl)amino)-2-methylphenyl)methanone hydrochloride] | 82
COc1ccc(-c2cnc3c(Nc4ccc(C(=O)N5CCN(C(=O)[C@@H]6CC(C)(C)CN6)CC5)c(C)c4)nccn23)c(F)c1F [Example 76, (S)-(4-(4-((3-(2,3-difluoro-4-methoxyphenyl)imidazo[1,2-a]pyrazin-8-yl)amino)-2-methylbenzoyl)piperazin-1-yl)(4,4-dimethylpyrrolidin-2-yl)methanone hydrochloride] | 91
COc1ccc(-c2cnc3c(Nc4ccc(C(=O)N5CCN(C(=O)[C@@H]6CCC(C)(C)N6)CC5)c(C)c4)nccn23)c(F)c1F [Example 77, (S)-(4-(4-((3-(2,3-difluoro-4-methoxyphenyl)imidazol[1,2-a]pyrazin-8-yl)amino)-2-methylbenzoyl)piperazin-1-yl)(5,5-dimethylpyrrolidin-2-yl)methanone hydrochloride] | 83

Same assay, conditions: Acinetobacter baumannii, ATCC17961, 16 h, read-out: ATCC17961 IC90

Compound | IC90 [nM]
COc1cc(Nc2nccn3c(-c4ccc(OC)c(F)c4F)cnc23)ccc1C(=O)N1CCN(C(=O)[C@H]2C[C@H](O)CN2)CC1 (stereo in doubt) [Example 586, (4-(4-((3-(2,3-difluoro-4-methoxyphenyl)imidazo[1,2-a]pyrazin-8-yl)amino)-2-methoxybenzoyl)piperazin-1-yl)((2R,4S)-4-hydroxypyrrolidin-2-yl)methanone formate] | 312

These compounds were tested on Acinetobacter baumannii ATCC17978 in the same assay as above. Conditions: 90% growth inhibitory concentration, Acinetobacter baumannii ATCC17978, Iso-Sensitest broth, OD 600 nm over 16 h; read-out: ATCC17978 IC90.
Type: cell-based
How it was run: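 A. baumannii ATCC17978 grown in Iso-Sensitest broth across 10 compound concentrations at 35±2 °C.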

Compound | IC90 [nM]
COc1ccc(-c2cnc3c(Nc4ccc(C(=O)N5CCC(C(=O)N6C[C@H](O)[C@@H](O)[C@H](O)[C@H]6CO)CC5)c(C)c4)nccn23)c(F)c1F [Example 566, (1-(4-((3-(2,3-difluoro-4-methoxyphenyl)imidazo[1,2-a]pyrazin-8-yl)amino)-2-methylbenzoyl)piperidin-4-yl)((2R,3R,4R,5S)-3,4,5-trihydroxy-2-(hydroxymethyl)piperidin-1-yl)methanone] | 370
COc1ccc(-c2cnc3c(Nc4ccc(C(=O)N5CCC(C(=O)NCC(O)CN6CCCC6)CC5)c(C)c4)nccn23)cc1F (centres unmarked) [Example 568, 1-(4-((3-(3-fluoro-4-methoxyphenyl)imidazo[1,2-a]pyrazin-8-yl)amino)-2-methylbenzoyl)-N-(2-hydroxy-3-(pyrrolidin-1-yl)propyl)piperidine-4-carboxamide] | 229

Same assay, conditions: Acinetobacter baumannii, ATCC17978, 16 h, read-out: ATCC17978 IC90, 90% growth inhibitory concentration, Acinetobacter baumannii ATCC17978, Iso-Sensitest broth, OD 600 nm over 16 h

Compound | IC90 [nM]
COc1ccc(-c2cnc3c(Nc4ccc(C(=O)N5CCN(C(=O)[C@@H]6C[C@@H](OC(=O)[C@@H](N)CCCCN)CN6)CC5)c(C)c4)nccn23)c(F)c1F [Example 561, [(3R,5S)-5-[4-[4-[[3-(2,3-difluoro-4-methoxy-phenyl)imidazo[1,2-a]pyrazin-8-yl]amino]-2-methyl-benzoyl]piperazine-1-carbonyl]pyrrolidin-3-yl] (2S)-2,6-diaminohexanoate formate] | 123
COc1ccc(-c2cnc3c(Nc4ccc(C(=O)N5CCN(C(=O)[C@@H]6C[C@@H](OC(=O)CN)CN6)CC5)c(C)c4)nccn23)c(F)c1F [Example 562, [(3R,5S)-5-[4-[4-[[3-(2,3-difluoro-4-methoxy-phenyl)imidazo[1,2-a]pyrazin-8-yl]amino]-2-methyl-benzoyl]piperazine-1-carbonyl]pyrrolidin-3-yl]2-aminoacetate formate] | 112
COc1ccc(-c2cnc3c(Nc4ccc(C(=O)N5CCN(C(=O)[C@@H]6C[C@@H](OC(=O)[C@@H](N)CO)CN6)CC5)c(C)c4)nccn23)c(F)c1F [Example 563, [(3R,5S)-5-[4-[4-[[3-(2,3-difluoro-4-methoxy-phenyl)imidazo[1,2-a]pyrazin-8-yl]amino]-2-methyl-benzoyl]piperazine-1-carbonyl]pyrrolidin-3-yl] (2S)-2-amino-3-hydroxy-propanoate formate] | 135
CCC(C#N)Oc1ccc(-c2cnc3c(Nc4ccc(C(=O)N5CCC(CN)CC5)c(C)c4)nccn23)c(F)c1F (centres unmarked) [Example 564, 2-(4-(8-((4-(4-(aminomethyl)piperidine-1-carbonyl)-3-methylphenyl)amino)imidazo [1,2-a]pyrazin-3-yl)-2,3-difluorophenoxy)butanenitrile formate] | 969
COc1ccc(-c2cnc3c(Nc4ccc(C(=O)N5CCN(C(=O)[C@@H]6C[C@@H](OC(=O)[C@@H](N)CCC(N)=O)CN6)CC5)c(C)c4)nccn23)c(F)c1F [Example 565, [(3R,5S)-5-[4-[4-[[3-(2,3-difluoro-4-methoxy-phenyl)imidazo[1,2-a]pyrazin-8-yl]amino]-2-methyl-benzoyl]piperazine-1-carbonyl]pyrrolidin-3-yl] (2S)-2,5-diamino-5-oxo-pentanoate formate] | 109
Cc1cc(Nc2nccn3c(-c4ccc(O[C@H](C)C#N)c(F)c4F)cnc23)ccc1C(=O)N1CCN(C(=O)[C@@H]2C[C@](C)(O)CN2)CC1 [Example 567, (2R)-2-[2,3-difluoro-4-[8-[4-[4-[(2S,4S)-4-hydroxy-4-methyl-pyrrolidine-2-carbonyl]piperazine-1-carbonyl]-3-methyl-anilino]imidazo[1,2-a]pyrazin-3-yl]phenoxy]propanenitrile formate] | 386
